ChEMBL document CHEMBL3885861, “Open TG-GATES”

Species: Rattus norvegicus
Assay: Open TG-GATES - Regimen: Single
Format: toxicity, organism-based, Sprague-Dawley
Design: regimen Single, gender Male, age 6 weeks
Conditions: in vivo, po, route gavage; for Bas / Eos / Fbg / Lym / Mono / RBC / Ret / WBC: tissue Blood; for KIDNEY_L / KIDNEY_R / KIDNEY_TOTAL: tissue Kidney; for ALP / CRE / DBIL / IP / K / LDH / Na / PL / RALB / TBIL / TG / TP / gamma-GTP / GLC: tissue Plasma
[1] = 0 mg/kg, 3 h, dose level Control
[2] = 0 mg/kg, 6 h, dose level Control
[3] = 0 mg/kg, 9 h, dose level Control
[4] = 0 mg/kg, 24 h, dose level Control

Which results are given for `C=C[C@H]1C[N@@]2CC[C@H]1C[C@@H]2[C@@H](O)c1ccnc2ccc(OC)cc12` [QUINIDINE]?
TERMINAL_BW [1]: 212.2 g; Bas [1]: 0%; Eos [1]: 0.8%; Fbg [1]: 313.6 mg/dL; Lym [1]: 78.2%; Mono [1]: 1.8%; RBC [1]: 615 x10_4/ul; Ret [1]: 7.3%; WBC [1]: 86.7 x10_2/uL; KIDNEY_L [1]: 0.9 g; KIDNEY_R [1]: 1 g; KIDNEY_TOTAL [1]: 1.9 g; ALP [1]: 1497.8 IU/L; CRE [1]: 0.2 mg/dL; DBIL [1]: 0 mg/dL; IP [1]: 8.8 mg/dL; K [1]: 3.9 meq/L; LDH [1]: 153 IU/L; Na [1]: 143.8 meq/L; PL [1]: 136 mg/dL; RALB [1]: 3 g/dL; TBIL [1]: 0.018 mg/dL; TG [1]: 60.6 mg/dL; TP [1]: 5.4 g/dL; gamma-GTP [1]: 1.8 IU/L; TERMINAL_BW [2]: 213.3 g; Bas [2]: 0%; Eos [2]: 0.6%; Fbg [2]: 318.2 mg/dL; Lym [2]: 81.4%; Mono [2]: 2.2%; RBC [2]: 641 x10_4/ul; Ret [2]: 7%; WBC [2]: 100 x10_2/uL; KIDNEY_L [2]: 1 g; KIDNEY_R [2]: 1 g; KIDNEY_TOTAL [2]: 1.9 g; ALP [2]: 1503.8 IU/L; CRE [2]: 0.2 mg/dL; DBIL [2]: 0 mg/dL; IP [2]: 9.3 mg/dL; K [2]: 4.2 meq/L; LDH [2]: 187 IU/L; Na [2]: 143 meq/L; PL [2]: 134.8 mg/dL; RALB [2]: 3.1 g/dL; TBIL [2]: 0.018 mg/dL; TG [2]: 73.6 mg/dL; TP [2]: 5.4 g/dL; gamma-GTP [2]: 1.2 IU/L; TERMINAL_BW [3]: 212.8 g; Bas [3]: 0%; Eos [3]: 0.4%; Fbg [3]: 288.2 mg/dL; Lym [3]: 79.4%; Mono [3]: 2%; RBC [3]: 614.8 x10_4/ul; Ret [3]: 6.9%; WBC [3]: 84.8 x10_2/uL; KIDNEY_L [3]: 1 g; KIDNEY_R [3]: 1 g; KIDNEY_TOTAL [3]: 1.9 g; ALP [3]: 1297.8 IU/L; CRE [3]: 0.2 mg/dL; DBIL [3]: 0 mg/dL; GLC [3]: 174.2 mg/dL; IP [3]: 9.6 mg/dL; K [3]: 4.4 meq/L; LDH [3]: 136.6 IU/L; Na [3]: 143.8 meq/L; PL [3]: 131.6 mg/dL; RALB [3]: 3 g/dL; TBIL [3]: 0.022 mg/dL; TG [3]: 66 mg/dL; TP [3]: 5.5 g/dL; gamma-GTP [3]: 1.6 IU/L; TERMINAL_BW [4]: 227.4 g; Bas [4]: 0%; Eos [4]: 0.8%; Fbg [4]: 298.2 mg/dL; Lym [4]: 78.6%; Mono [4]: 1.8%; RBC [4]: 618.4 x10_4/ul; Ret [4]: 6.9%; WBC [4]: 90.9 x10_2/uL; KIDNEY_L [4]: 1 g; KIDNEY_R [4]: 1 g; KIDNEY_TOTAL [4]: 2 g; ALP [4]: 1610.6 IU/L; CRE [4]: 0.1 mg/dL; DBIL [4]: 0 mg/dL; IP [4]: 7.9 mg/dL; K [4]: 4.3 meq/L; LDH [4]: 202.2 IU/L; Na [4]: 141.6 meq/L; PL [4]: 149.8 mg/dL; RALB [4]: 3 g/dL; TBIL [4]: 0.008 mg/dL; TP [4]: 5.7 g/dL; gamma-GTP [4]: 1.6 IU/L; TERMINAL_BW (20 mg/kg, 3 h, dose level Low): 218.9 g; Bas (20 mg/kg, 3 h, dose level Low): 0%; Eos (20 mg/kg, 3 h, dose level Low): 0.2%; Fbg (20 mg/kg, 3 h, dose level Low): 293.2 mg/dL; Lym (20 mg/kg, 3 h, dose level Low): 81%; Mono (20 mg/kg, 3 h, dose level Low): 2%; RBC (20 mg/kg, 3 h, dose level Low): 600.6 x10_4/ul; Ret (20 mg/kg, 3 h, dose level Low): 7.5%; WBC (20 mg/kg, 3 h, dose level Low): 73.2 x10_2/uL; KIDNEY_L (20 mg/kg, 3 h, dose level Low): 1 g; KIDNEY_R (20 mg/kg, 3 h, dose level Low): 1 g; KIDNEY_TOTAL (20 mg/kg, 3 h, dose level Low): 2 g; ALP (20 mg/kg, 3 h, dose level Low): 1446.4 IU/L; CRE (20 mg/kg, 3 h, dose level Low): 0.2 mg/dL; DBIL (20 mg/kg, 3 h, dose level Low): 0 mg/dL; GLC (20 mg/kg, 3 h, dose level Low): 178.4 mg/dL; IP (20 mg/kg, 3 h, dose level Low): 8.7 mg/dL; K (20 mg/kg, 3 h, dose level Low): 3.7 meq/L; Na (20 mg/kg, 3 h, dose level Low): 142 meq/L; PL (20 mg/kg, 3 h, dose level Low): 145 mg/dL; RALB (20 mg/kg, 3 h, dose level Low): 3 g/dL; TBIL (20 mg/kg, 3 h, dose level Low): 0.022 mg/dL; TG (20 mg/kg, 3 h, dose level Low): 68.2 mg/dL; TP (20 mg/kg, 3 h, dose level Low): 5.4 g/dL; gamma-GTP (20 mg/kg, 3 h, dose level Low): 1.8 IU/L; TERMINAL_BW (20 mg/kg, 6 h, dose level Low): 214.6 g; Bas (20 mg/kg, 6 h, dose level Low): 0%; Eos (20 mg/kg, 6 h, dose level Low): 0.8%; Fbg (20 mg/kg, 6 h, dose level Low): 294.2 mg/dL; Lym (20 mg/kg, 6 h, dose level Low): 78%; Mono (20 mg/kg, 6 h, dose level Low): 2.6%; RBC (20 mg/kg, 6 h, dose level Low): 617.4 x10_4/ul; Ret (20 mg/kg, 6 h, dose level Low): 7.3%; WBC (20 mg/kg, 6 h, dose level Low): 80 x10_2/uL; KIDNEY_L (20 mg/kg, 6 h, dose level Low): 0.9 g; KIDNEY_R (20 mg/kg, 6 h, dose level Low): 1 g; KIDNEY_TOTAL (20 mg/kg, 6 h, dose level Low): 1.9 g; ALP (20 mg/kg, 6 h, dose level Low): 1616.2 IU/L; CRE (20 mg/kg, 6 h, dose level Low): 0.2 mg/dL; DBIL (20 mg/kg, 6 h, dose level Low): 0.004 mg/dL; IP (20 mg/kg, 6 h, dose level Low): 9.4 mg/dL; K (20 mg/kg, 6 h, dose level Low): 4 meq/L; Na (20 mg/kg, 6 h, dose level Low): 142.8 meq/L; PL (20 mg/kg, 6 h, dose level Low): 140.6 mg/dL; RALB (20 mg/kg, 6 h, dose level Low): 3 g/dL; TBIL (20 mg/kg, 6 h, dose level Low): 0.034 mg/dL; TG (20 mg/kg, 6 h, dose level Low): 55.6 mg/dL; TP (20 mg/kg, 6 h, dose level Low): 5.4 g/dL; gamma-GTP (20 mg/kg, 6 h, dose level Low): 1.2 IU/L; TERMINAL_BW (20 mg/kg, 9 h, dose level Low): 213.3 g; Bas (20 mg/kg, 9 h, dose level Low): 0%; Eos (20 mg/kg, 9 h, dose level Low): 0.8%; Fbg (20 mg/kg, 9 h, dose level Low): 302.6 mg/dL; Lym (20 mg/kg, 9 h, dose level Low): 77.2%; Mono (20 mg/kg, 9 h, dose level Low): 2.2%; RBC (20 mg/kg, 9 h, dose level Low): 642 x10_4/ul; Ret (20 mg/kg, 9 h, dose level Low): 6.9%; WBC (20 mg/kg, 9 h, dose level Low): 88 x10_2/uL; KIDNEY_L (20 mg/kg, 9 h, dose level Low): 1 g; KIDNEY_R (20 mg/kg, 9 h, dose level Low): 1 g; KIDNEY_TOTAL (20 mg/kg, 9 h, dose level Low): 2 g; ALP (20 mg/kg, 9 h, dose level Low): 1487 IU/L; CRE (20 mg/kg, 9 h, dose level Low): 0.2 mg/dL; DBIL (20 mg/kg, 9 h, dose level Low): 0 mg/dL; IP (20 mg/kg, 9 h, dose level Low): 9.3 mg/dL; K (20 mg/kg, 9 h, dose level Low): 4.4 meq/L; LDH (20 mg/kg, 9 h, dose level Low): 133.8 IU/L; Na (20 mg/kg, 9 h, dose level Low): 143.8 meq/L; PL (20 mg/kg, 9 h, dose level Low): 136.8 mg/dL; RALB (20 mg/kg, 9 h, dose level Low): 3 g/dL; TBIL (20 mg/kg, 9 h, dose level Low): 0.02 mg/dL; TG (20 mg/kg, 9 h, dose level Low): 83.4 mg/dL; TP (20 mg/kg, 9 h, dose level Low): 5.5 g/dL; gamma-GTP (20 mg/kg, 9 h, dose level Low): 1.6 IU/L; TERMINAL_BW (20 mg/kg, 24 h, dose level Low): 228.7 g; Bas (20 mg/kg, 24 h, dose level Low): 0%; Eos (20 mg/kg, 24 h, dose level Low): 1%; Fbg (20 mg/kg, 24 h, dose level Low): 321.4 mg/dL; Lym (20 mg/kg, 24 h, dose level Low): 82.4%; Mono (20 mg/kg, 24 h, dose level Low): 2.4%; RBC (20 mg/kg, 24 h, dose level Low): 632.8 x10_4/ul; Ret (20 mg/kg, 24 h, dose level Low): 6.7%; WBC (20 mg/kg, 24 h, dose level Low): 97.6 x10_2/uL; KIDNEY_L (20 mg/kg, 24 h, dose level Low): 1 g; KIDNEY_R (20 mg/kg, 24 h, dose level Low): 1 g; KIDNEY_TOTAL (20 mg/kg, 24 h, dose level Low): 1.9 g; ALP (20 mg/kg, 24 h, dose level Low): 1563 IU/L; CRE (20 mg/kg, 24 h, dose level Low): 0.1 mg/dL; DBIL (20 mg/kg, 24 h, dose level Low): 0.002 mg/dL; IP (20 mg/kg, 24 h, dose level Low): 7.7 mg/dL; K (20 mg/kg, 24 h, dose level Low): 4 meq/L; Na (20 mg/kg, 24 h, dose level Low): 140.4 meq/L; RALB (20 mg/kg, 24 h, dose level Low): 3.1 g/dL; TBIL (20 mg/kg, 24 h, dose level Low): 0 mg/dL; TG (20 mg/kg, 24 h, dose level Low): 147.8 mg/dL; TP (20 mg/kg, 24 h, dose level Low): 5.8 g/dL; gamma-GTP (20 mg/kg, 24 h, dose level Low): 1.8 IU/L; TERMINAL_BW (60 mg/kg, 3 h, dose level Middle): 222.4 g
